# Reference: patent US8414885B2, “Methods and compositions for treating cancer” (priority 2009, dated 2013)
# Peptide text beside a SMILES is read from it. * marks the point of attachment. Cbz = O=C(OCc1ccccc1)*; CH2F = FC*
# Molecular target: T1, caspase-7 (Homo sapiens, UniProt P55210)
# T1 construct: endogenous in cells; host or cells: A2058 human melanoma cells infected with delta-PK
# T1 sequence (P55210 24-198 limits assumed): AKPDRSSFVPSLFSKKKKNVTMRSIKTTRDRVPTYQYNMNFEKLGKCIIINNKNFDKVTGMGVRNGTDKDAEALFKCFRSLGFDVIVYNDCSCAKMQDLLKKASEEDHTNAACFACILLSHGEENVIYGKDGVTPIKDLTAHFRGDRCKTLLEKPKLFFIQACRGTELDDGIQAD
# T1 sequence (P55210 207-303 limits assumed): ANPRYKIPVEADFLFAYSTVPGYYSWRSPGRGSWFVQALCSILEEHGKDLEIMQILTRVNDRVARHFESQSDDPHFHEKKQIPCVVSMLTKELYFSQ
# Assay: Immunoblotting for caspase-7 activation in infected melanoma cells
# Type: cell-based
# Details: delta-PK infected cultures, 24 hrs p.i.; PD150606 100 μM; z-VAD-fmk 100 μM (Sigma-Aldrich) or 20 μM (Promega)
# From the text: FIG. 6. Calpain and caspase-7 and caspace-3 are activated in delta-PK infected melanoma cells. […] Data were quantified by densitometry and expressed as the ratio of the p76/p80 and p28 densitometric units +/−SD, respectively. Representatives of three replicate experiments are shown (***p<0.001 vs. Mock). B. The immunoblots in FIG. 6A were sequentially stripped and re-probed with antibodies to activated caspase-7, activated caspase-3, and actin. Data were quantified by densitometry and results are expressed as densitometric units +/−SD (**p<0.01, ***p<0.001 vs. Mock). C. […]
# Cultured cells were lysed with radioimmunoprecipitation buffer [RIPA; 20 mM Tris-HCl (pH 7.4), […], 1% Nonidet P-40, 0.1% sodium dodecyl sulfate (SDS), 0.5% sodium deoxycholate] supplemented with protease and phosphatase inhibitor cocktails (Sigma-Aldrich), and sonicated twice for 30 seconds at 25% output power with a sonicator ultrasonic processor (Misonix, Inc., Farmingdale, N.Y.). […] Protein concentration was determined by the bicinchoninic assay (Pierce, Rockford, Ill.), and 100 μg protein samples were resolved by SDS-polyacrylamide gel elecrophoresis (SDS-PAGE) and transferred to polyvinylidene fluoride membranes followed by immunoblotting. […] Quantitation was by densitometric scanning with the Bio-Rad GS-700 imaging densitometer (Bio-Rad, Hercules, Calif.). […]
row,SMILES,effect of inhibitor on delta-PK induced caspase-7 activation / cleavage products
1,O=C(O)/C(S)=C/c1ccc(I)cc1 [PD150606],increased
2,"COC(=O)C[C@H](NC(=O)[C@H](C)NC(=O)[C@@H](NC(=O)OCc1ccccc1)C(C)C)C(=O)CF [z-VAD-fmk, benzyloxcarbonyl-Val-Ala-Asp-fluormethyl ketone] (Cbz-Val-Ala-Asp(OMe)-CH2F)",inhibited
